Measurements reported in ChEMBL document CHEMBL5291721, “A preclinical secondary pharmacology resource illuminates target-adverse drug reaction associations of marketed drugs” (Nat Commun, 2023).
One block for each compound: values may come before it.

How the values were obtained:
[1] = molecular target: T1, Muscarinic acetylcholine receptor M1 (Homo sapiens, UniProt P11229); format: functional, cell-based
T1 sequence (P11229 whole entry): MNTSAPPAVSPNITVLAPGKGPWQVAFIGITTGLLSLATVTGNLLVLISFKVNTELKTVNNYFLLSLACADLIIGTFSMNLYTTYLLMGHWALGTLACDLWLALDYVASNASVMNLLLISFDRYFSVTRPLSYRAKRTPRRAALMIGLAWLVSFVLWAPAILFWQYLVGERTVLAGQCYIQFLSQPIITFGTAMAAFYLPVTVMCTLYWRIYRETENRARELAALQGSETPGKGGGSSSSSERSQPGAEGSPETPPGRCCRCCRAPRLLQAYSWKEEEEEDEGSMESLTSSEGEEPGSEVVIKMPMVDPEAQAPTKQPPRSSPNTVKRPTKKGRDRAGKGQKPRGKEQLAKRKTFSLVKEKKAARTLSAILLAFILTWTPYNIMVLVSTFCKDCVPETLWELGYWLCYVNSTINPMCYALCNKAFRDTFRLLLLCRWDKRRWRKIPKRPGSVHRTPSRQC

[2] = molecular target: T1, Muscarinic acetylcholine receptor M1; format: functional, cell-based; remark: listed apart in the source
[3] = molecular target: T2, Muscarinic acetylcholine receptor M5 (Homo sapiens, UniProt P08912)
T2 sequence (P08912 whole entry): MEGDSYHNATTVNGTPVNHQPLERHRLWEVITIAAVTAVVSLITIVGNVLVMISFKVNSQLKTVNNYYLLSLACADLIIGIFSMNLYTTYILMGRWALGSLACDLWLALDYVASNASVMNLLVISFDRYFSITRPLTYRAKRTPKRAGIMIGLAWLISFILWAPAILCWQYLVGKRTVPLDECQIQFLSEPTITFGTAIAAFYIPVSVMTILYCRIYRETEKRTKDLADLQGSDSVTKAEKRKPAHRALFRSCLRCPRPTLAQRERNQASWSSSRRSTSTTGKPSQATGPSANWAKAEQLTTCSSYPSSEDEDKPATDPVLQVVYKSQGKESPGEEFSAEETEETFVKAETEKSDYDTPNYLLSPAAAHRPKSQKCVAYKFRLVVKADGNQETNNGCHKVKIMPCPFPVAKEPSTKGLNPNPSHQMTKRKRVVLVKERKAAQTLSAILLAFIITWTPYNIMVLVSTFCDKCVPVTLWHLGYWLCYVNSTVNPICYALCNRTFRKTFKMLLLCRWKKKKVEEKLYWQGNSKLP

Cannabinoid receptor 1 = Cannabinoid receptor 1 (Homo sapiens, UniProt P21554); format: functional
Chain of Cannabinoid receptor 1 (P21554 whole entry): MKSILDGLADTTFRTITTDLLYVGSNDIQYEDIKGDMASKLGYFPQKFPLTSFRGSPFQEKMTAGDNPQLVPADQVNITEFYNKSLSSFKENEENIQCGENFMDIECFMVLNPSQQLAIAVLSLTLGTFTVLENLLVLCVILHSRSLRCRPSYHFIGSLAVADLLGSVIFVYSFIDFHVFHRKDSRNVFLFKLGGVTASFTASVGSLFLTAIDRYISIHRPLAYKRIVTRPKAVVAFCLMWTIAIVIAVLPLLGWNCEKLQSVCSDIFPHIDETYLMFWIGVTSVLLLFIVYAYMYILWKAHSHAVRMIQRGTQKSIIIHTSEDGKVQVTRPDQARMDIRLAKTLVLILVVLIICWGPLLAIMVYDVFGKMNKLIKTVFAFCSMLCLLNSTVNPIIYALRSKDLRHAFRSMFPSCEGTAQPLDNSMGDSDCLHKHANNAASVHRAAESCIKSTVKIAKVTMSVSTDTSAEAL

[4] = molecular target: Gamma-aminobutyric acid type B receptor subunit 1 (Homo sapiens, UniProt Q9UBS5)
[5] = molecular target: 5-hydroxytryptamine receptor 6 (Homo sapiens, UniProt P50406)
Chain of 5-hydroxytryptamine receptor 6 (P50406 whole entry): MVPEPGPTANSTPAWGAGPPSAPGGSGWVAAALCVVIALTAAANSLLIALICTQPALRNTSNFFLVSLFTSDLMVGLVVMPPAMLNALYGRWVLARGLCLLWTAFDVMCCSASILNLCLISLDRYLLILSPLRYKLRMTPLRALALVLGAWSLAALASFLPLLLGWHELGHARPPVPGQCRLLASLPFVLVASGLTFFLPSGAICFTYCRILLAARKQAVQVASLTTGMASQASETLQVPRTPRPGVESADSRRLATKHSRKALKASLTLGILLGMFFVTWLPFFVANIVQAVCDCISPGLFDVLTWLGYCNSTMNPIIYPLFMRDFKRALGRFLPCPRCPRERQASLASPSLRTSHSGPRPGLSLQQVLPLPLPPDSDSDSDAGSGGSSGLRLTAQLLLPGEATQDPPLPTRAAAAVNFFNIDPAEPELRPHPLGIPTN

[6] = molecular target: 5-hydroxytryptamine receptor 7 (Homo sapiens, UniProt P34969)
Chain of 5-hydroxytryptamine receptor 7 (P34969 whole entry): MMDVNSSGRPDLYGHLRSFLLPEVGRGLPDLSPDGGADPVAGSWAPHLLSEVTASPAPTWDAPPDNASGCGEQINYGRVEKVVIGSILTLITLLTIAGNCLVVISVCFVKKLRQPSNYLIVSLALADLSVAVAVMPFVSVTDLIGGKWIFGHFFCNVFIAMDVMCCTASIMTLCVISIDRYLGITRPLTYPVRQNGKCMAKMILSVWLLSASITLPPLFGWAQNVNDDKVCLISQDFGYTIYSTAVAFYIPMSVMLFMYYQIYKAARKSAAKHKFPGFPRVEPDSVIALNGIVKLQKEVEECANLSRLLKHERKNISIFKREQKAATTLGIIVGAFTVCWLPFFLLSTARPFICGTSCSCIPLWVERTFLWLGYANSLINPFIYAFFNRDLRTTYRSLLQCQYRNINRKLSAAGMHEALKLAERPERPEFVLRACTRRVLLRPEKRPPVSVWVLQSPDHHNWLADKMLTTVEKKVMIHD

[7] = molecular target: Sodium channel protein type 5 subunit alpha (Homo sapiens, UniProt Q14524); format: functional, cell-based
Substance-P receptor = Substance-P receptor (Homo sapiens, UniProt P25103)
Chain of Substance-P receptor (P25103 whole entry): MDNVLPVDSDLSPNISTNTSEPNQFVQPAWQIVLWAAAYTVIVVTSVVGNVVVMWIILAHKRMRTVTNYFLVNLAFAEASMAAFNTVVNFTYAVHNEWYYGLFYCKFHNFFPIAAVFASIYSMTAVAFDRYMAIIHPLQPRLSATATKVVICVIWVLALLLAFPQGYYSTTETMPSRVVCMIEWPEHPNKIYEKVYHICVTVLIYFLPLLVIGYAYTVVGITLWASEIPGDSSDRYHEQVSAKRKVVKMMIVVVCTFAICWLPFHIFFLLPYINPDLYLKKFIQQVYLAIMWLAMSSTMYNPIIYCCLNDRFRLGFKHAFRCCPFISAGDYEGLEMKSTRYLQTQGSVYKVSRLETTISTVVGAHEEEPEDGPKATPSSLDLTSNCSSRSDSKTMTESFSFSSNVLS

[8] = molecular target: T3, Alpha-1A adrenergic receptor (Homo sapiens, UniProt P35348)
T3 sequence (P35348 whole entry): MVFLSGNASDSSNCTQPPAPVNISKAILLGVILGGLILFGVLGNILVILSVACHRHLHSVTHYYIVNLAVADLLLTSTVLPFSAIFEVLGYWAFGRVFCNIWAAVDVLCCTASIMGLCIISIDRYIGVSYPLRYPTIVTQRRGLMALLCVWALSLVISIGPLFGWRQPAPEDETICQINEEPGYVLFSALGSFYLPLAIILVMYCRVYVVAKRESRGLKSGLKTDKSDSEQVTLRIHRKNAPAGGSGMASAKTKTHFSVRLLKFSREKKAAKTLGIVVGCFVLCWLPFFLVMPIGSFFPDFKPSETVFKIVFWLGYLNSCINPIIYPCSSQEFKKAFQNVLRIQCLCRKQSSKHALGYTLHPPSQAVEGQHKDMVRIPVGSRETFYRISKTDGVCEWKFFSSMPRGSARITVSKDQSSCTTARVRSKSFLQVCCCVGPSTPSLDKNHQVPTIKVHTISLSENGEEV

[9] = molecular target: T1, Muscarinic acetylcholine receptor M1; format: functional, cell-based; remark: listed apart in the source
[10] = molecular target: Sodium-dependent serotonin transporter (Homo sapiens, UniProt P31645)
Chain of Sodium-dependent serotonin transporter (P31645 whole entry): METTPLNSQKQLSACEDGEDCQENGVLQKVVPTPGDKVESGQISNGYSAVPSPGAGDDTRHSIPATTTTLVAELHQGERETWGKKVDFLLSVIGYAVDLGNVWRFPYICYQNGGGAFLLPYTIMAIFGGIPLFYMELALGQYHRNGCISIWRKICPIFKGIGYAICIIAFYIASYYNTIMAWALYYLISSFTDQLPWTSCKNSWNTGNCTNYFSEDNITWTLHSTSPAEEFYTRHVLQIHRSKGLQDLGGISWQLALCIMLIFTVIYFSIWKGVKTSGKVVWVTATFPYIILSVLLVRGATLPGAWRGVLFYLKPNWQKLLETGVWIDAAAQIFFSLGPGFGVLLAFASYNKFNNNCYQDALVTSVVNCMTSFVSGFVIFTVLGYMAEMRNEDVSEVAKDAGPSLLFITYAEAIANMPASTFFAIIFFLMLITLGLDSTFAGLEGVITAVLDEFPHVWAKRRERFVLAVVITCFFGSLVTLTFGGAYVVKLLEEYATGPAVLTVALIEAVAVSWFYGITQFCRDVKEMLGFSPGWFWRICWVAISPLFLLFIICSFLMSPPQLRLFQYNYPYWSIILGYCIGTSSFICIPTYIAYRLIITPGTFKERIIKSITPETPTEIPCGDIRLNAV

[11] = molecular target: Gamma-aminobutyric acid receptor subunit alpha-1/alpha-2/beta-2/gamma-2 (Homo sapiens, UniProt P14867+P18507+P47869+P47870); format: protein-complex assay
Chain of Gamma-aminobutyric acid receptor subunit alpha-1/alpha-2/beta-2/gamma-2 (P14867 whole entry): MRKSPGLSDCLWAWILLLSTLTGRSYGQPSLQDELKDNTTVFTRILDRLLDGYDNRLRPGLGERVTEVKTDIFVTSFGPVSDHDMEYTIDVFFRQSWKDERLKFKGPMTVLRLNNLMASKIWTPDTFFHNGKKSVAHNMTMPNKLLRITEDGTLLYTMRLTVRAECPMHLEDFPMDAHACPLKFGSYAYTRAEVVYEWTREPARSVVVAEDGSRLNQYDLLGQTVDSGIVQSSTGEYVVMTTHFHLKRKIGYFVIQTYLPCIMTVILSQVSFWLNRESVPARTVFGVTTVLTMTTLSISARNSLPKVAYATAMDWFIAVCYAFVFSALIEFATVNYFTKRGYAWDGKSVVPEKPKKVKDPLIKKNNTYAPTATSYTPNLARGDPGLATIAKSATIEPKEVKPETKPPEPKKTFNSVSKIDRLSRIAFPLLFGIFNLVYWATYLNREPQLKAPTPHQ
Chain of Gamma-aminobutyric acid receptor subunit alpha-1/alpha-2/beta-2/gamma-2 (P47870 whole entry): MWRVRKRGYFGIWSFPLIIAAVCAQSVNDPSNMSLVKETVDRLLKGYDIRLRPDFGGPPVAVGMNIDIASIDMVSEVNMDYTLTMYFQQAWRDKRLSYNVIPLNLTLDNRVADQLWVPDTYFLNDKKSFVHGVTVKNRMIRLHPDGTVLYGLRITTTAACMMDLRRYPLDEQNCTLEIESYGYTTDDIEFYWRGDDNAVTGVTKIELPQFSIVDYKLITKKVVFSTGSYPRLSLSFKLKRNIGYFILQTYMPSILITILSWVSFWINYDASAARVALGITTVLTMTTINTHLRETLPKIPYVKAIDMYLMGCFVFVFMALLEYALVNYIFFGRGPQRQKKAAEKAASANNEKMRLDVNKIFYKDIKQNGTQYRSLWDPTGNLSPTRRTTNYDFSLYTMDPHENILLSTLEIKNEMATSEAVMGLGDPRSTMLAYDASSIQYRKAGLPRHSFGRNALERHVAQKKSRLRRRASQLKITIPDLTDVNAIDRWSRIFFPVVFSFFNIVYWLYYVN
Chain of Gamma-aminobutyric acid receptor subunit alpha-1/alpha-2/beta-2/gamma-2 (P18507 whole entry): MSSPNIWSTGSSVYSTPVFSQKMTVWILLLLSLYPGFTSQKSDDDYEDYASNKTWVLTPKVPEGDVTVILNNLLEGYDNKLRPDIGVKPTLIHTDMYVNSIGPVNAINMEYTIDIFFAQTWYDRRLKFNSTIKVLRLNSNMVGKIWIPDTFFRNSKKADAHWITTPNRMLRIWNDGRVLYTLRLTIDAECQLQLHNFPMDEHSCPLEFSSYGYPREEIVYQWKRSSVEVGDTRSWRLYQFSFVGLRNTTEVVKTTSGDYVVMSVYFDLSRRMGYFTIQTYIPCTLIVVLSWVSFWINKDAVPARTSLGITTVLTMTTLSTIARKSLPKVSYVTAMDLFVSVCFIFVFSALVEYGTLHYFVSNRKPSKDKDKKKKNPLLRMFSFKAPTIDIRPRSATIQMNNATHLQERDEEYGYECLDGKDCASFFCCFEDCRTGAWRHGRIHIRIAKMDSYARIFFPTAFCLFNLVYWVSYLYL
Chain of Gamma-aminobutyric acid receptor subunit alpha-1/alpha-2/beta-2/gamma-2 (P47869 whole entry): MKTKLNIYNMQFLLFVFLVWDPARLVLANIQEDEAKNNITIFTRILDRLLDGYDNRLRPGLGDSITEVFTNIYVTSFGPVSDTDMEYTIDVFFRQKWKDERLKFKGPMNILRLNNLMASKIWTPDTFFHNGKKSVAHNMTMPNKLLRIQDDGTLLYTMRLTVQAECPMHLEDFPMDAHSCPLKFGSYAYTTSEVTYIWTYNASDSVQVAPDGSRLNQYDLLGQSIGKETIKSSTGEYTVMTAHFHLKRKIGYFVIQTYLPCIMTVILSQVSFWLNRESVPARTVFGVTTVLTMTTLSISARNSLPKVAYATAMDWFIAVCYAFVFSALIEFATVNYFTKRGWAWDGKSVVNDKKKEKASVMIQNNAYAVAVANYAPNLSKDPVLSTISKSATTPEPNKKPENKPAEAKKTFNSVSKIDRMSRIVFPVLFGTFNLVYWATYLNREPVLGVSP
Also: assay procedure not described here.

Compound: C[N@+]1(CCF)[C@@H]2CC[C@H]1C[C@@H](OC(=O)C(O)(c1ccccc1)c1ccccc1)C2
AC50 [1]: > 30 µM
AC50 [2]: 0.5 nM

AC50 [3]: > 10 µM
AC50 (Cannabinoid receptor 1): > 10 µM
AC50 [4]: > 10 µM
AC50 [5]: > 10 µM
AC50 [6]: > 10 µM
AC50 (Substance-P receptor): > 10 µM
AC50 [8]: > 10 µM
Compound: Cn1c(=O)cc(N2CCC[C@@H](N)C2)n(Cc2ccccc2C#N)c1=O [ALOGLIPTIN]
AC50 [7]: > 150 µM

AC50 [9]: > 30 µM
AC50 [10]: > 30 µM
Compound: Nc1c2ccccc2nc2ccccc12 [AMINACRINE]

AC50 [11]: > 30 µM
Compound: O=C(O)CCCCC1CCSS1 (stereo not drawn) [LIPOIC ACID, ALPHA]
